Assay results as given in patent publication US20230058623A1, “NOVEL HETEROARYL-TRIAZOLE COMPOUNDS AS PESTICIDES” (Bayer Aktiengesellschaft, priority 2019, published 2023).

Tests used:
Type in all cases: in vivo
[1] = system: Rhipicephalus (Boophilus) microplus larvae (strain Parkhurst, resistant against synthetic pyrethroids); experiment: Rhipicephalus (Boophilus) microplus in-vitro contact test, larval cattle tick; settings: after 48 hours, read-out: activity (efficacy: larvae dead or moribund); for pest or weed control at 1 µg/cm2, 100 g/ha: application rate 1 μg/cm^2 (=100 g/ha); for pest or weed control at 5 µg/cm2, 500 g/ha: application rate 5 μg/cm^2 (=500 g/ha)
Protocol: Rhipicephalus (Boophilus) microplus—In-Vitro Contact Tests Larval Cattle Tick (Strain Parkhurst, Resistant Against Synthetic Pyrethroids)
(§1) 9 mg compound is solved in 1 ml acetone and diluted with acetone to the desired concentration. 250 μL of the test solution is filled in 25 mL glass test tubes and homogeneously distributed on the inner walls by rotation and tilting on a shaking device (2 h at 30 rpm). With a compound concentration of 900 ppm, an inner surface of 44.7 cm^2 and a homogeneous distribution, a dose of 5 μg/cm^2 is achieved.
After the solvent has evaporated, each test tube is filled with 20-50 cattle tick larvae (Rhipicephalus microplus), closed with a perforated lid and incubated in a horizontal position at 85% relative humidity and 27° C. in an incubator. After 48 hours efficacy is determined. The larvae are patted on the ground of the tubes and negative geotactic behavior is recorded.
An efficacy of 100% means all larvae are dead or moribund; 0% means no larvae are dead or moribund.

[2] = system: adult engorged female ticks (Rhipicephalus microplus); experiment: Rhipicephalus (Boophilus) microplus injection test; settings: 168 h, application rate 4 μg/tick, egg deposition after 7 days, read-out: activity (efficacy: infertile eggs)
Protocol: Rhipicephalus (Boophilus) microplus—Injection Test
Solvent: dimethyl sulfoxide
To produce a suitable preparation of active compound, 10 mg of active compound are dissolved in 0.5 mL solvent, and the concentrate is diluted with solvent to the desired concentration.
Five adult engorged female ticks (Rhipicephalus microplus) are injected with 1 μL compound solution into the abdomen. The ticks are transferred into replica plates and incubated in a climate chamber.
After 7 days egg deposition of fertile eggs is monitored. Eggs where fertility is not visible are stored in a climate chamber till hatching after about 42 days. An efficacy of 100% means all eggs are infertile; 0% means all eggs are fertile.

[3] = system: adult brown dog ticks (Rhipicephalus sanguineus); experiment: Rhipicephalus sanguineus in-vitro contact test, adult brown dog ticks; settings: application rate 5 μg/cm^2 (=500 g/ha), after 48 hours, read-out: activity (efficacy: ticks dead or moribund)
Protocol: Rhipicephalus sanguineus—In-Vitro Contact Tests with Adult Brown Dog Ticks
as §1, with “mL” for “ml”
(§2) After the solvent has evaporated, each test tube is filled with 5-10 adult brown dog ticks (Rhipicephalus sanguineus), closed with a perforated lid and incubated in a lying position at room temperature and relative humidity. After 48 hours efficacy is determined. The ticks are patted on the ground of the tubes and are incubated on a heating plate at 45-50° C. for at most 5 minutes. Immotile or uncoordinated moving ticks, which are not able to escape the heat by climbing upwards, are marked as dead or moribund.
An efficacy of 100% means all ticks are dead or moribund; 0% means no ticks are dead or moribund.

[4] = system: green peach aphid (Myzus persicae); experiment: Myzus persicae oral test; settings: 120 h, read-out: activity (mortality)
Protocol: Solvent: 100 parts by weight acetone
To produce a suitable preparation of active compound, 1 part by weight of active compound is mixed with the stated amount of solvent, and the concentrate is diluted with water to the desired concentration.
50 μL compound solution is filled in microtiter plates and 150 μL IPL41 insect medium (33%+15% sugar) is added to obtain a total volume of 200 μL per well. Afterwards the plates are sealed with parafilm through which a mixed population of the green peach aphid (Myzus persicae) can suck on the compound preparation.
(§3) After 5 days mortality in % is determined. 100% means all aphids have been killed and 0% means none of the aphids have been killed.

[5] = system: adult cat fleas (Ctenocephalides felis); experiment: Ctenocephalides felis in-vitro contact test, adult cat flea; settings: application rate 5 μg/cm^2 (=500 g/ha), after 48 hours, read-out: activity (efficacy: fleas dead or moribund)
Protocol: Ctenocephalides felis—In-Vitro Contact Tests Adult Cat Flea
as §1, with “mL” for “ml”
as §2, with “cat fleas (Ctenocephalides felis),” for “brown dog ticks (Rhipicephalus sanguineus),”, “fleas” for “ticks”, “fleas,” for “ticks,”
An efficacy of 100% means all fleas are dead or moribund; 0% means no fleas are dead or moribund.

[6] = system: green peach aphid (Myzus persicae); experiment: Myzus persicae spray test; settings: foliar, 120 h, application rate 100 g/ha, after 5 days, Chinese cabbage leaf disks, read-out: activity (mortality)
Protocol: Myzus persicae—Spray Test
(§4) To produce a suitable preparation of active compound, 1 part by weight of active compound is mixed with the stated amount of solvents and is diluted with water, containing an emulsifier concentration of 1000 ppm, to the desired concentration. Further test concentrations are prepared by dilution with emulsifier containing water.
Chinese cabbage (Brassica pekinensis) leaf disks infected with all instars of the green peach aphid (Myzus persicae), are sprayed with a preparation of the active ingredient of the desired concentration.
as §3

[7] = system: fall armyworm larvae (Spodoptera frugiperda); experiment: Spodoptera frugiperda spray test; settings: 168 h, application rate 100 g/ha, after 7 days, maize leaf sections
Protocol: Spodoptera frugiperda—Spray Test
as §4
Maize (Zea mays) leaf sections are sprayed with a preparation of the active ingredient of the desired concentration. Once dry, the leaf sections are infested with fall armyworm larvae (Spodoptera frugiperda).
After 7 days mortality in % is determined. 100% means all caterpillars have been killed and 0% means none of the caterpillars have been killed.

[8] = system: larvae of the banded cucumber beetle (Diabrotica balteata); experiment: Diabrotica balteata spray test; settings: 168 h, application rate 100 g/ha (=32 μg/well), after 7 days, wheat seeds, read-out: activity (efficacy: seedlings grown)
Protocol: Diabrotica balteata—Spray Test
as §4, with “solvent,” for “solvents”, “and the concentrate” for “and”
Soaked wheat seeds (Triticum aestivum) are placed in a multiple well plate filled with agar and some water and are incubated for 1 day to germinate (5 seeds per well). The germinated wheat seeds are sprayed with a test solution containing the desired concentration of the active ingredient. Afterwards each unit is infected with 10-20 larvae of the banded cucumber beetle (Diabrotica balteata).
After 7 days efficacy in % is determined. 100% means all the seedlings have grown up like in the untreated, uninfected control; 0% means none of the seedlings have grown.

[9] = system: larvae of the southern green stink bug (Nezara viridula); experiment: Nezara viridula spray test; settings: 96 h, after 4 days, barley plants; for mortality at 500 g/ha: application rate 500 g/ha, read-out: activity (mortality); for mortality at 100 g/ha: application rate 100 g/ha
Protocol: Nezara viridula—Spray Test
as §4, with “solvent,” for “solvents”, “and the concentrate” for “and”
Barley plants (Hordeum vulgare) are sprayed with a test solution containing the desired concentration of the active ingredient and are infested with larvae of the southern green stink bug (Nezara viridula).
After 4 days mortality in % is determined. 100% means all the stink bugs have been killed; 0% means none of the stink bugs have been killed.

SMILES	pest or weed control at 1 µg/cm2, 100 g/ha [1]	pest or weed control at 0.004 mg [2]	pest or weed control at 5 µg/cm2, 500 g/ha [3]	mortality at 4 ppm [4]	pest or weed control at 5 µg/cm2, 500 g/ha [1]	pest or weed control at 5 µg/cm2 [5]	mortality at 100 g/ha [6]	mortality at 100 g/ha [7]	pest or weed control at 32 µg/disc, 100 g/ha [8]	mortality at 500 g/ha [9]	mortality at 100 g/ha [9]
C[C@H](NC(=O)c1cc(C(F)(F)F)cc(C(F)(F)F)c1)c1ncnn1-c1ccc(C(=O)N2CCC(O)CC2)cn1 [Example I-6]	90%	100%	80%	100%							
C[C@H](NC(=O)c1cc(C(F)(F)F)cc(C(F)(F)F)c1)c1ncnn1-c1ccc(C(=O)N2CCC2)cn1 [Example I-10]	100%	100%	100%	100%	100%	100%	90%	100%			
C[C@H](NC(=O)c1cc(Cl)cc(C(F)(F)F)c1)c1ncnn1-c1ccc(C(=O)N2CCCOCC2)cn1 [Example I-34]	100%	100%	100%		100%						
CC1CCN(C(=O)c2ccc(-n3ncnc3[C@H](C)NC(=O)c3cc(Cl)cc(C(F)(F)F)c3)nc2)CC1 [Example I-38]		100%	80%						100%		
C[C@H](NC(=O)c1cc(C(F)(F)F)cc(C(F)(F)F)c1)c1ncnn1-c1ccc(C(=O)N(C)C2CCN(C)CC2)cn1 [Example I-62]									80%	100%	
C[C@H](NC(=O)c1cc(C(F)(F)F)cc(C(F)(F)F)c1)c1ncnn1-c1ccc(C(=O)N2CCNC(=O)C2)cn1 [Example I-65]				100%							90%
C[C@H](NC(=O)c1cc(Cl)cc(S(=O)(=O)C2CC2)c1)c1nc(C2CC2)nn1-c1ccc(C(=O)N2CCOCC2)cn1 [Example I-90]								100%		100%	
C[C@H](NC(=O)c1cc(C(F)(F)F)cc(C(F)(F)F)c1)c1ncnn1-c1ccc(C(=O)N2CCOCC2c2ncno2)cn1 (stereo partly shown) [Example I-98]	100%		100%	100%	100%	90%			100%		90%
Cc1nc([C@H](C)NC(=O)c2cc(C(F)(F)F)cc(C(F)(F)F)c2)n(-c2ncc(C(=O)N3C[C@@H](C)O[C@H](C)C3)s2)n1 [Example I-106]	100%	100%	100%	100%	100%			100%	100%		
C[C@H](NC(=O)c1cc(Cl)cc(S(C)(=O)=O)c1)c1ncnn1-c1ccc(C(=O)N2CCSCC2)cn1 [Example I-120]				100%					80%		90%
C[C@@H]1CN(C(=O)c2ccc(-n3ncnc3[C@H](C)NC(=O)c3cc(Cl)cc(S(C)(=O)=O)c3)nc2)C[C@@H](C)O1 [Example I-121]				100%						100%	90%
CCc1nc([C@H](C)NC(=O)c2cc(Cl)cc(S(=O)(=O)C3CC3)c2)n(-c2ccc(C(=O)N3C[C@@H](C)O[C@@H](C)C3)cn2)n1 [Example I-133]								100%		100%	
CCc1nc([C@H](C)NC(=O)c2cc(Br)cc(OC(F)(F)F)c2)n(-c2ccc(C(=O)N3C[C@@H](C)O[C@@H](C)C3)cn2)n1 [Example I-135]	100%		100%		100%	100%		100%	100%	100%	
C[C@@H]1CN(C(=O)c2cnc(-n3ncnc3[C@H](C)NC(=O)c3cc(OC(F)(F)F)cc(C4CC4)c3)cn2)C[C@H](C)O1 [Example I-141]							90%	100%		100%	90%
